Assay [1] concerns the target T1, ΔF508-CFTR (Homo sapiens, UniProt P13569, DEL508-508).
T1 construct: host or cells: CFBE41o-, doxycycline-inducible
Nature of the assay: CFTR cell surface levels using HRP-tagged ΔF508-CFTR expressing CFBE cells, intrinsic corrector capacity. The assay is classed as cell-based. To be noted: for EC50: read-out: EC50. In a few lines: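 Here the cells express ΔF508-CFTR with horseradish peroxidase inserted in extracellular loop 4, so only rescued channel at the surface gives luminescent signal. Compounds act on their own, 20 h at the reduced temperature of 33 °C; values are percent activity relative to DMSO and a 3 μM corrector.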

The target of assay [2] is T1, ΔF508-CFTR. Nature of the assay: CFTR cell surface levels using HRP-tagged ΔF508-CFTR expressing CFBE cells, in the presence of a co-corrector. The assay is classed as cell-based. To be noted: HRP-tagged ΔF508-CFTR expressing CFBE cells, in the presence of 3 μM co-corrector; for EC50: read-out: EC50. The procedure, abridged: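 Cells were seeded with 0.5 μg/mL doxycycline and held 68 h at 37 °C. Test compounds plus 3 μM co-corrector (final 0.1% DMSO) were then added for 20 h at 33 °C. Washed cells received HRP substrate, and luminescence was normalized between DMSO and 3 μM co-corrector controls.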

[3] abbreviates: HRP-tagged ΔF508-CFTR expressing CFBE cells, intrinsic corrector capacity (no co-corrector), 33° C., 20 hours.
Setting [4] is: HRP-tagged ΔF508-CFTR CFBE cells, compound alone (intrinsic corrector capacity), 20 hours at 33° C.
Setting [5] is: HRP-tagged ΔF508-CFTR CFBE41o- cells, compounds alone (intrinsic corrector capacity), 20 hours at 33° C., positive control 3 μM corrector.
Setting [6] is: HRP-tagged ΔF508-CFTR CFBE41o- cells, compounds alone (intrinsic corrector capacity), 20 hours at 33° C.

T1 sequence (P13569 with tags, fused parts or gaps DEL508-508): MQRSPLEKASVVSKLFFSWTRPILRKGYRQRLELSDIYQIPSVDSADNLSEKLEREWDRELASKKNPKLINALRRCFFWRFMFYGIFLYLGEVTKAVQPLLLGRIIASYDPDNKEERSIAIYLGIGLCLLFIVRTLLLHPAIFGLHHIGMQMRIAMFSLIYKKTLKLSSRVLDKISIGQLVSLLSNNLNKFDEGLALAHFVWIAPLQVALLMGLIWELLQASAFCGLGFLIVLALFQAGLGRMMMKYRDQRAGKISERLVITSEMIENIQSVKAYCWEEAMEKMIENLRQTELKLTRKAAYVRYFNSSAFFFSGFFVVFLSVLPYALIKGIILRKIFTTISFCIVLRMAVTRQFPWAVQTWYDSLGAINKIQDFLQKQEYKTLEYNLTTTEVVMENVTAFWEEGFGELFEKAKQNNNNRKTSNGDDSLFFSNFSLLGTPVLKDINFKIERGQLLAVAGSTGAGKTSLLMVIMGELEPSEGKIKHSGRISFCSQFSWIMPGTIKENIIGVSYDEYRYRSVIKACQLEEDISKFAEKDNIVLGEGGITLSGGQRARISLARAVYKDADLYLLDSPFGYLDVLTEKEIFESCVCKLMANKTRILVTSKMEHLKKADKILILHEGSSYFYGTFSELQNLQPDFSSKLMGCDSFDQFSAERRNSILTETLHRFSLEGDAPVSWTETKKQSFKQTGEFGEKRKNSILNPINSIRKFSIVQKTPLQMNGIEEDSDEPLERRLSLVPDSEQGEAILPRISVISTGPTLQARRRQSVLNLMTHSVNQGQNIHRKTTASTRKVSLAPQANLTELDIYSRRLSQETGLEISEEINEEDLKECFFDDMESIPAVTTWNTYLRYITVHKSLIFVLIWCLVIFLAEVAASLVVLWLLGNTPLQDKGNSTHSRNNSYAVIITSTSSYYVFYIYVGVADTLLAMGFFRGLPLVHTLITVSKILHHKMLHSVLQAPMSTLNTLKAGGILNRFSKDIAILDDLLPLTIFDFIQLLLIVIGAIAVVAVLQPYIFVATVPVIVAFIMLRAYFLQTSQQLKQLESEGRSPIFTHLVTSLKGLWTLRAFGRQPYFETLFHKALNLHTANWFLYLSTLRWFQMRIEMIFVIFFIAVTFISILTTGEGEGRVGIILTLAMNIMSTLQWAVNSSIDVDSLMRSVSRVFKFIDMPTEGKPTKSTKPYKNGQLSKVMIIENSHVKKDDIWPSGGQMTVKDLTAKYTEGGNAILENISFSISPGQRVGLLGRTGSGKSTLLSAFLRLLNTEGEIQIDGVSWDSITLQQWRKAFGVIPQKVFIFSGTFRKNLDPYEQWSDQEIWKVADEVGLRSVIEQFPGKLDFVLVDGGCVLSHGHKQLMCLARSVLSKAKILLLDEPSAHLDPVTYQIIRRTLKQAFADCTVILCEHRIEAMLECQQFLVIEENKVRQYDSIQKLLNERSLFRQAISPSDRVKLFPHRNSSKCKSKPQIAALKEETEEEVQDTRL

A word on the EC50: it is the midpoint of the concentration-response curve. With `CN1CCN(c2ccc(-c3cc(C(=O)O)nc4c3c(C3CCC3)nn4C3CCCCC3)cn2)CC1` [compound 877, 3-cyclobutyl-1-cyclohexyl-4-[6-(4-methylpiperazin-1-yl)pyridin-3-yl]-1H-pyrazolo[3,4-b]pyridine-6-carboxylic acid], in assay [1] (setting [3]), the “% Activation” value is reported as 162.65% and the EC50 is 348 nM. Moreover, in assay [2], the “% Activation” value came out at 374.57% and the EC50 was 605 nM.
In the case of `COC1CCN(C2CCN(c3cc(C(=O)O)nc4c3c(OC(C)C)nn4-c3ccc(F)cc3)CC2)CC1` [compound 926, 1-(4-fluorophenyl)-4-(4-methoxy[1,4′-bipiperidin]-1′-yl)-3-[(propan-2-yl)oxy]-1H-pyrazolo[3,4-b]pyridine-6-carboxylic acid], in assay [1] (setting [4]), the “% Activation” value is reported as 240.2% and the EC50 is 521 nM. Also, in assay [2], the “% Activation” value turned out to be 486.6% and the EC50 came out at 340 nM.
As to `O=C(O)c1cc(N2CCC(F)(CO)CC2)c2c(C3CCC3)nn(-c3ccccc3)c2n1` [compound 517, 3-cyclobutyl-4-[4-fluoro-4-(hydroxymethyl)piperidin-1-yl]-1-phenyl-1H-pyrazolo[3,4-b]pyridine-6-carboxylic acid], the “% Activation” value in assay [1] (setting [3]) was determined as 82.63%; in assay [2], 303.2%. Further, the EC50 in assay [1] (setting [3]) was 646 nM; in assay [2] it was 575 nM.
Take `O=C(O)c1cc(N2CCN(CC3OCCO3)CC2)c2c(C3CCC3)nn(-c3ccccc3)c2n1` [compound 684, 3-cyclobutyl-4-{4-[(1,3-dioxolan-2-yl)methyl]piperazin-1-yl}-1-phenyl-1H-pyrazolo[3,4-b]pyridine-6-carboxylic acid]: in assay [1] (setting [3]), the “% Activation” value was 230.2% and the EC50 turned out to be 380 nM. Moreover, in assay [2], the “% Activation” value amounted to 384.65% and the EC50 is 236 nM.
Turning to `Cc1nn(-c2ccccc2)c2nc(C(=O)O)cc(-c3ccc(N(C)C4CCOCC4)nc3)c12` [compound 168, 3-methyl-4-{6-[methyl(oxan-4-yl)amino]pyridin-3-yl}-1-phenyl-1H-pyrazolo[3,4-b]pyridine-6-carboxylic acid], the “% Activation” value in assay [1] (setting [5]) was found to be 190.23%; in assay [2], 379.07%. Moreover, the figures for the EC50 in assay [1] (setting [6]) and in assay [2] were 1290 nM and 697 nM, respectively.
On the same counts, the results for `COCCN(C)c1ncc(-c2cc(C(=O)O)nc3c2c(C(C)C)nn3-c2cccc(N3CCOCC3)c2)cn1` [compound 230, 4-{2-[(2-methoxyethyl)(methyl)amino]pyrimidin-5-yl}-1-[3-(morpholin-4-yl)phenyl]-3-(propan-2-yl)-1H-pyrazolo[3,4-b]pyridine-6-carboxylic acid] are 368.85%, 507.3%, 1490 nM and 514 nM.
As to `Cc1cccc(-n2nc(C3CCC3)c3c(N4CCC(N5CCOCC5)CC4)cc(C(=O)O)nc32)c1` [compound 820, 3-cyclobutyl-1-(3-methylphenyl)-4-[4-(morpholin-4-yl)piperidin-1-yl]-1H-pyrazolo[3,4-b]pyridine-6-carboxylic acid], in assay [1] (setting [3]), the “% Activation” value was found to be 351.3% and the EC50 was found to be 285 nM. For the same compound, in assay [2], the “% Activation” value was determined as 499.75% and the EC50 came to 123 nM.
The corresponding values for `COC1CCN(CC2CCN(c3cc(C(=O)O)nc4c3c(C3CCC3)nn4-c3ccccc3)CC2)CC1` [compound 841, 3-cyclobutyl-4-{4-[(4-methoxypiperidin-1-yl)methyl]piperidin-1-yl}-1-phenyl-1H-pyrazolo[3,4-b]pyridine-6-carboxylic acid] are 225%, 532 nM, 457.1% and 314 nM.
On to `CC(C)c1nn(-c2ccnc(Cl)c2)c2nc(C(=O)O)cc(-c3ccc(N4CCOCC4)cc3)c12` [compound 41, 1-(2-chloropyridin-4-yl)-4-[4-(morpholin-4-yl)phenyl]-3-(propan-2-yl)-1H-pyrazolo[3,4-b]pyridine-6-carboxylic acid], for which the “% Activation” value in assay [1] (setting [5]) is recorded as 110.52%; in assay [2] it was 301.2%. The EC50 is 957 nM in assay [1] (setting [6]) and 527 nM in assay [2].
The corresponding values for `CC(C)c1nn(-c2cccc(F)c2)c2nc(C(=O)O)cc(-c3ccc(N4CCOCC4)cc3)c12` [compound 242, 1-(3-fluorophenyl)-4-[4-(morpholin-4-yl)phenyl]-3-(propan-2-yl)-1H-pyrazolo[3,4-b]pyridine-6-carboxylic acid] are 206.5%, 394.12%, 603 nM and 338 nM.
As for `CC1(COc2cc(C(=O)O)nc3c2c(C2CCC2)nn3-c2ccccc2)COCOC1` [compound 622, 3-cyclobutyl-4-[(5-methyl-1,3-dioxan-5-yl)methoxy]-1-phenyl-1H-pyrazolo[3,4-b]pyridine-6-carboxylic acid], the results for the “% Activation” value in assay [1] (setting [3]) and in assay [2] were 124.5% and 275.2%, respectively. In addition, the EC50 in assay [1] (setting [3]) stood at 165 nM; in assay [2], 67.5 nM.
For the compound `COCC1(F)CCN(c2cc(C(=O)O)nc3c2c(C2CCC2)nn3-c2ccccc2)C1` (centres unmarked) [compound 508, 3-cyclobutyl-4-[3-fluoro-3-(methoxymethyl)pyrrolidin-1-yl]-1-phenyl-1H-pyrazolo[3,4-b]pyridine-6-carboxylic acid], in assay [1] (setting [3]), the “% Activation” value worked out at 104.6% and the EC50 was determined as 1110 nM. Also, in assay [2], the “% Activation” value was found to be 271.8% and the EC50 came out at 451 nM.
In the case of `COCC1CCN(c2cc(C(=O)O)nc3c2c(C(C)C)nn3-c2ccc(F)cc2)CC1` [compound 391, 1-(4-fluorophenyl)-4-[4-(methoxymethyl)piperidin-1-yl]-3-(propan-2-yl)-1H-pyrazolo[3,4-b]pyridine-6-carboxylic acid], the “% Activation” value in assay [1] (setting [5]) was determined as 306.23%; in assay [2], 528.7%. Besides, the EC50 in assay [1] (setting [6]) is 590 nM; in assay [2], 374 nM.
For the compound `CC(C)c1nn(C2CCCCC2)c2nc(C(=O)O)cc(-c3cnc(N4CCC(C#N)CC4)nc3)c12` [compound 235, 4-[2-(4-cyanopiperidin-1-yl)pyrimidin-5-yl]-1-cyclohexyl-3-(propan-2-yl)-1H-pyrazolo[3,4-b]pyridine-6-carboxylic acid], the “% Activation” value in assay [1] (setting [5]) is given as 206.8%; in assay [2] it was 403.1%. Moreover, the values for the half-maximal effective concentration (EC50) in assay [1] (setting [6]) and in assay [2] were 832 nM and 743 nM, respectively.
In the case of `CC(C)OC1CN(c2cc(C(=O)O)nc3c2c(C2CCC2)nn3-c2ccccc2)C1` [compound 573, 3-cyclobutyl-1-phenyl-4-{3-[(propan-2-yl)oxy]azetidin-1-yl}-1H-pyrazolo[3,4-b]pyridine-6-carboxylic acid], the “% Activation” value in assay [1] (setting [3]) is on record as 149.7%; in assay [2], 376%. Besides, the values for the EC50 in assay [1] (setting [3]) and in assay [2] were 974 nM and 299 nM, respectively.
On the same counts, the results for `CN1CCC([C@@H](F)COc2cc(C(=O)O)nc3c2c(C2CCC2)nn3-c2ccccc2)CC1` [compound 482, 3-cyclobutyl-4-[(2R)-2-fluoro-2-(1-methylpiperidin-4-yl)ethoxy]-1-phenyl-1H-pyrazolo[3,4-b]pyridine-6-carboxylic acid] are 144.75%, 284.7%, 1640 nM and 709 nM.
For `Cc1nn(-c2ccccc2)c2nc(C(=O)O)cc(OCC3(C)COC3)c12` [compound 375, 3-methyl-4-[(3-methyloxetan-3-yl)methoxy]-1-phenyl-1H-pyrazolo[3,4-b]pyridine-6-carboxylic acid], the “% Activation” value in assay [1] (setting [5]) is reported as 36.645%; in assay [2], 184.1%. The EC50 worked out at 3340 nM in assay [1] (setting [6]) and 1670 nM in assay [2].
The corresponding values for `O=C(O)c1cc(-c2ccc(N3CCOCC3)cc2)c2c(C3CCC3)nn(-c3ccc(F)c(F)c3)c2n1` [compound 350, 3-cyclobutyl-1-(3,4-difluorophenyl)-4-[4-(morpholin-4-yl)phenyl]-1H-pyrazolo[3,4-b]pyridine-6-carboxylic acid] are 211%, 397.5%, 426 nM and 316 nM.
`Cc1nn(-c2ccccc2)c2nc(C(=O)O)cc(N3CCCOCC3)c12` [compound 315, 3-methyl-4-(1,4-oxazepan-4-yl)-1-phenyl-1H-pyrazolo[3,4-b]pyridine-6-carboxylic acid]: the “% Activation” value in assay [1] (setting [5]) is on record as 24.61%; in assay [2] it was 150.3%. Also, the EC50 came out at 3430 nM in assay [1] (setting [6]) and 4170 nM in assay [2].
On to `O=C(O)c1cc(N2CCC(N3CCN(C4COC4)CC3)CC2)c2c(C3CCC3)nn(-c3ccc(F)cc3)c2n1` [compound 899, 3-cyclobutyl-1-(4-fluorophenyl)-4-{4-[4-(oxetan-3-yl)piperazin-1-yl]piperidin-1-yl}-1H-pyrazolo[3,4-b]pyridine-6-carboxylic acid], for which, in assay [1] (setting [3]), the “% Activation” value worked out at 210.9% and the EC50 came to 3100 nM. Moreover, in assay [2], the “% Activation” value worked out at 351.9% and the EC50 came out at 309 nM.
